Laboratory results published in US9895381B2, “Vitamin D receptor agonists to treat diseases involving CXCL12 activity” (Salk Institute for Biological Studies, priority 2013, dated 2018).

Assays:
[1] = system: pancreatic cancer patient; assay: Patient treated with neoadjuvant paricalcitol plus gemcitabine/abraxane; assay type: in vivo, human
Procedure: Thus, in some examples, paricalcitol is administered at 5 or 10 μg IV three times weekly for two-three weeks before surgery. […] Paricalcitol can be given for 28 days approximately prior to planned surgery, and can be continued up to the day before surgery, since there is no relevant toxicity of this micronutrient. Last dose can be 24 h before surgery (if surgery is delayed, and additional days of therapy may be given to reach the day before surgery).

[2] = cited from earlier work
PDA patients = conditions: standard of care; cited from earlier work
[3] = 28 days paricalcitol with one cycle of gemcitabine/abraxane

SMILES | adverse clinical effects before surgery [1, 3] | calcium levels [1, 3] | histological analysis of resected tumor ([1]; after surgery) | serum CA 19-9 level after treatment ([1]; reduced from 120 U/mL, normal range 0-37 U/mL) [U/mL] | phosphorus and calcium levels ([2]; first 30 days of treatment) | mean plasma clearance ([2]; over 600 patients) [L/h] | benefit to PDA patients (PDA patients) [month]
C[C@H](/C=C/[C@H](C)C(C)(C)O)[C@H]1CC[C@H]2/C(=C/C=C3C[C@@H](O)C[C@H](O)C3)CCC[C@]12C [Paricalcitol, 19-nor-1,25-(OH)2-vitamin D2] | No adverse clinical effects | no elevation calcium levels | granulomas with few cancer cells | 40 | stable phosphorus and calcium levels | 1.75 | 
Cl.Nc1ccn([C@@H]2O[C@H](CO)[C@@H](O)C2(F)F)c(=O)n1 [gemcitabine, 2′-Deoxy-2′,2′-difluorocytidine monohydrochloride] |  |  |  |  |  |  | 1.5
